# Assay results as given in patent publication US20180256611A1, “BISPHOSPHONATES FOR INCREASING THE TYPE 2 CHARACTER OF A MODIC CHANGE” (ANTECIP BIOVENTURES II LLC, priority 2017, published 2018).
# Test system: patients with chronic low back pain (LBP) and Modic changes on MRI
# Assay: Double-blinded, randomized, placebo-controlled clinical trial of a single intravenous infusion of 5 mg zoledronic acid
# Assay type: in vivo, human
# Conditions: for Intensity of leg pain, mean (SD) original value / Intensity of LBP, mean (SD) original value / Intensity of LBP, mean (SD) change: 10-cm VAS; for Fingers-to-floor, between-group difference, adjusted (ANCOVA) / Fingers-to-floor, between-group difference, unadjusted / Intensity of LBP, between-group difference, adjusted analysis (ANCOVA, baseline value) / Intensity of LBP, between-group difference, unadjusted analysis / Intensity of leg pain, between-group difference, adjusted (ANCOVA) / Intensity of leg pain, between-group difference, unadjusted / Oswestry disability index, between-group difference, adjusted (ANCOVA) / Oswestry disability index, between-group difference, unadjusted / RAND-36 mental component, between-group difference (95% CI), adjusted (ANCOVA) / RAND-36 mental component, between-group difference (95% CI), unadjusted / RAND-36 physical component, between-group difference (95% CI), adjusted (ANCOVA) / RAND-36 physical component, between-group difference (95% CI), unadjusted / Sidebending to left, between-group difference, adjusted (ANCOVA) / Sidebending to left, between-group difference, unadjusted / Sidebending to right, between-group difference, adjusted (ANCOVA) / Sidebending to right, between-group difference, unadjusted / Total RAND-36, between-group difference (95% CI), adjusted (ANCOVA) / Total RAND-36, between-group difference (95% CI), unadjusted: ZA vs placebo
# Method: A study was performed to evaluate the efficacy of a single intravenous infusion of 5 mg zoledronic acid in comparison with intravenous placebo infusion among patients with chronic low back pain (LBP) and Modic changes on MRI. This study was a double-blinded, randomized, placebo-controlled clinical trial in patients with low back pain (LBP).
# Patients were excluded from the study if they had renal impairment with reduced creatinine clearance defined as an estimated glomerular filtration rate (eGFR) below 40 ml/min, hypocalcemia, known hypersensitivity to zoledronic acid or other bisphosphonates or ingredients of the infusion product, the presence of red flags, nerve root entrapment or willingness for early retirement. Premenopausal women of childbearing potential were also excluded. Blood samples were taken prior to the infusion to assess the serum concentration of calcium and creatinine. The clinical examination included medical history and clinical assessment of lumbar flexibility, tendon signs, and motor and sensory testing.
# After confirmation of eligibility patients were randomized to receive a single intravenous infusion of 5 mg zoledronic acid (n=20) or 100 ml saline as placebo (n=20) over a 15-minute period. Information on use of the concomitant medication and hospital admissions were recorded. Blood samples were taken for the assessment of safety, inflammatory mediators and markers of bone turnover at baseline, at one month and at one year.
# Clinical assessments were performed at 14 days before enrollment (screening visit), and at follow-up visits at one month and one year after the infusion. The primary outcome was the change in the intensity of LBP on VAS. Secondary outcomes included leg pain intensity, ODI, health-related quality of life assessed with RAND-36, patient-reported sick leaves and lumbar flexibility. These outcome measures were assessed at baseline and at each follow-up. Lumbar flexibility was evaluated using the fingers-to-floor and trunk side bending measures (in cm). The percentage of patients undergoing a 20% relative improvement, the proportion of patients reaching a VAS score of 40 mm or less using 100 mm scale in the primary outcome, and patient acceptable symptom state (PASS) were also assessed. Pain medication use was inquired about during the follow-up visits.
smiles,measurement,setting,value
"O=P(O)(O)C(O)(Cn1ccnc1)P(=O)(O)O [ZA, zoledronic acid]","Fingers-to-floor, mean (SD) original value",1 mo.,17 (17) cm
same,"Oswestry disability index, mean (SD) original value",1 mo.,24 (10) %
same,"RAND-36 mental component, mean (SD) original value",1 mo.,50 (9)
same,"RAND-36 physical component, mean (SD) original value",1 mo.,52 (9)
same,"Sidebending to left, mean (SD) original value",1 mo.,16.1 (5.3) cm
same,"Sidebending to right, mean (SD) original value",1 mo.,15.7 (5.9) cm
same,"Total RAND-36, mean (SD) original value",1 mo.,51 (8)
same,"Intensity of leg pain, mean (SD) original value",1 mo.,2.0 (2.3)
same,"Intensity of LBP, mean (SD) original value",1 mo. after 5 mg IV,4.3 (2.3)
same,"Intensity of leg pain, mean (SD) original value",12 mos.,2.1 (2.8)
same,"Intensity of LBP, mean (SD) original value",12 mos. after 5 mg IV,3.8 (2.5)
same,"Intensity of leg pain, mean (SD) original value",baseline,3.0 (3.1)
same,"Intensity of LBP, mean (SD) change",baseline to 1 mo.,−2.2 (2.7)
same,"Intensity of LBP, mean (SD) change",baseline to 12 mos.,−2.8 (2.9)
same,"Intensity of LBP, mean (SD) original value","baseline, n=20",6.6 (1.4)
same,"Fingers-to-floor, mean (SD) original value",12 mos.,16 (16) cm
same,"Oswestry disability index, mean (SD) original value",12 mos.,25 (13) %
same,"RAND-36 mental component, mean (SD) original value",12 mos.,51 (9)
same,"RAND-36 physical component, mean (SD) original value",12 mos.,52 (8)
same,"Sidebending to left, mean (SD) original value",12 mos.,16.2 (6.7) cm
same,"Sidebending to right, mean (SD) original value",12 mos.,15.7 (5.6) cm
same,"Total RAND-36, mean (SD) original value",12 mos.,51 (8)
same,"Fingers-to-floor, between-group difference, adjusted (ANCOVA)",1 mo.,3.6 cm
same,"Fingers-to-floor, between-group difference, unadjusted",1 mo.,5.0 cm
same,"Intensity of LBP, between-group difference, adjusted analysis (ANCOVA, baseline value)",1 mo.,1.4
same,"Intensity of LBP, between-group difference, unadjusted analysis",1 mo.,1.3
same,"Intensity of leg pain, between-group difference, adjusted (ANCOVA)",1 mo.,0.8
same,"Intensity of leg pain, between-group difference, unadjusted",1 mo.,0.8
same,"Oswestry disability index, between-group difference, adjusted (ANCOVA)",1 mo.,6.0%
same,"Oswestry disability index, between-group difference, unadjusted",1 mo.,4.3%
same,"RAND-36 mental component, between-group difference (95% CI), adjusted (ANCOVA)",1 mo.,1.6 (−2 to 5)
same,"RAND-36 mental component, between-group difference (95% CI), unadjusted",1 mo.,2.0 (−2 to 6)
same,"RAND-36 physical component, between-group difference (95% CI), adjusted (ANCOVA)",1 mo.,1.3 (−3 to 6)
same,"RAND-36 physical component, between-group difference (95% CI), unadjusted",1 mo.,0.3 (−4 to 5)
same,"Sidebending to left, between-group difference, adjusted (ANCOVA)",1 mo.,−1.7 cm
same,"Sidebending to left, between-group difference, unadjusted",1 mo.,−1.5 cm
same,"Sidebending to right, between-group difference, adjusted (ANCOVA)",1 mo.,−2.0 cm
same,"Sidebending to right, between-group difference, unadjusted",1 mo.,−2.0 cm
same,"Total RAND-36, between-group difference (95% CI), adjusted (ANCOVA)",1 mo.,1.3 (−3 to 5)
same,"Total RAND-36, between-group difference (95% CI), unadjusted",1 mo.,1.2 (−3 to 5)
same,"Fingers-to-floor, between-group difference, adjusted (ANCOVA)",12 mos.,5.3 cm
same,"Fingers-to-floor, between-group difference, unadjusted",12 mos.,7.1 cm
same,"Intensity of LBP, between-group difference, adjusted analysis (ANCOVA, baseline value)",12 mos.,0.7
same,"Intensity of LBP, between-group difference, unadjusted analysis",12 mos.,0.6
same,"Intensity of leg pain, between-group difference, adjusted (ANCOVA)",12 mos.,0.5
same,"Intensity of leg pain, between-group difference, unadjusted",12 mos.,0.6
same,"Oswestry disability index, between-group difference, adjusted (ANCOVA)",12 mos.,5.1%
same,"Oswestry disability index, between-group difference, unadjusted",12 mos.,3.1%
same,"RAND-36 mental component, between-group difference (95% CI), adjusted (ANCOVA)",12 mos.,2.7 (−2 to 7)
same,"RAND-36 mental component, between-group difference (95% CI), unadjusted",12 mos.,3.5 (−2 to 9)
same,"RAND-36 physical component, between-group difference (95% CI), adjusted (ANCOVA)",12 mos.,2.1 (−3 to 7)
same,"RAND-36 physical component, between-group difference (95% CI), unadjusted",12 mos.,0.7 (−5 to 6)
same,"Sidebending to left, between-group difference, adjusted (ANCOVA)",12 mos.,−1.0 cm
same,"Sidebending to left, between-group difference, unadjusted",12 mos.,−0.7 cm
same,"Sidebending to right, between-group difference, adjusted (ANCOVA)",12 mos.,−1.7 cm
same,"Sidebending to right, between-group difference, unadjusted",12 mos.,−1.6 cm
same,"Total RAND-36, between-group difference (95% CI), adjusted (ANCOVA)",12 mos.,2.2 (−2 to 7)
same,"Total RAND-36, between-group difference (95% CI), unadjusted",12 mos.,2.1 (−3 to 7)
same,Patients using NSAIDs (self-reported),"at one year, placebo 60%",20%
same,"Fingers-to-floor, mean (SD) original value",baseline,23 (19) cm
same,"Oswestry disability index, mean (SD) original value",baseline,30 (11) %
same,"RAND-36 mental component, mean (SD) original value",baseline,49 (9)
same,"RAND-36 physical component, mean (SD) original value",baseline,52 (8)
same,"Sidebending to left, mean (SD) original value",baseline,15.0 (5.4) cm
same,"Sidebending to right, mean (SD) original value",baseline,14.1 (4.9) cm
same,"Total RAND-36, mean (SD) original value",baseline,50 (8)
same,"Fingers-to-floor, mean (SD) change",baseline to 1 mo.,−5.1 (20) cm
same,"Intensity of leg pain, mean (SD) change",baseline to 1 mo.,−0.6 (2.4)
same,"Oswestry disability index, mean (SD) change",baseline to 1 mo.,−5.9 (11) %
same,"RAND-36 mental component, mean change",baseline to 1 mo.,1.0
same,"RAND-36 physical component, mean change",baseline to 1 mo.,0.1
same,"Sidebending to left, mean (SD) change",baseline to 1 mo.,1.1 (3.0) cm
same,"Sidebending to right, mean (SD) change",baseline to 1 mo.,1.5 (4.7) cm
same,"Total RAND-36, mean change",baseline to 1 mo.,0.6
same,"Fingers-to-floor, mean (SD) change",baseline to 12 mos.,−6.3 (23) cm
same,"Intensity of leg pain, mean (SD) change",baseline to 12 mos.,−0.9 (3.4)
same,"Oswestry disability index, mean (SD) change",baseline to 12 mos.,−5.0 (15) %
same,"RAND-36 mental component, mean change",baseline to 12 mos.,1.8
same,"RAND-36 physical component, mean change",baseline to 12 mos.,0.3
same,"Sidebending to left, mean (SD) change",baseline to 12 mos.,1.2 (5.3) cm
same,"Sidebending to right, mean (SD) change",baseline to 12 mos.,1.6 (4.8) cm
same,"Total RAND-36, mean change",baseline to 12 mos.,1.0
same,Proportion of patients reaching patient acceptable symptom state (PASS),"one month, placebo 20% (p=0.096)",50%
same,Proportion of patients with at least 20% improvement in intensity of LBP,"one month, placebo 25% (p=0.105)",55%
same,"Pain reduction, VAS change from baseline",patients with Baseline VAS <6,−0.1 cm
same,"Pain reduction, VAS change from baseline",patients with Baseline VAS ≥6 and <7,−2.3 cm
same,"Pain reduction, VAS change from baseline",patients with Baseline VAS ≥7,−3.4 cm
same,Mean reduction in pain from baseline,patients with baseline pain intensity <6,0.1
same,Mean reduction in pain from baseline,patients with baseline pain intensity ≥7,3.4
